Results as given in patent publication US20240238310A1, “MODULATION OF SEX STEROID HORMONE PRODUCTION AND ACTIVITY FOR TREATING AND PREVENTING HERNIAS” (Northwestern University, priority 2020, published 2024).
“Also recorded” adds a separate entry of the source.

System: Arom^hum mice
Assay: Reversal of established scrotal hernias and LAMT fibrosis/atrophy in Arom^hum mice
Assay type: in vivo, mouse
Protocol: FIG. 16. […] Arom^hum mice with small to moderate size of hernias were treated with placebo or letrozole for 12 weeks. (A) Schematic diagram depicts the schedule of drug administration. (B) The area of scrotal hernia in Arom^hum mice. (C) Representative photomicrographs of Masson's trichrome-stained LAMT sections of WT and Arom^hum mice. Quantification of the percentage of connective tissue or fibrotic area (D) or myofiber area (E) in WT and Arom^hummice. 10 representative high-power fields were analyzed in each tissue. One-way ANOVA with Tukey's multiple comparison test, **p<0.01, ***p<0.001. Scale bars, […]. n=5 mice per group.
FIG. 17. […] Arom^hum mice with small to moderate size of hernias were treated with placebo or letrozole for 3 weeks. (A) Schematic diagram depicts the schedule of drug administration. (B) The area of scrotal hernia in Arom^hum mice.
FIG. 18. E2/ER antagonist fulvestrant reverses the large size of scrotal hernias and rescues LAMT fibrosis and myocyte atrophy in Arom^hum mice. Arom^hum mice with large size of hernias were treated with placebo or fulvestrant for 12 weeks. (A) Schematic diagram depicts the schedule of drug administration. (B) The area of scrotal hernia in Arom^hum mice. (C) Representative photomicrographs of Masson's trichrome-stained LAMT sections of WT and Arom^hum mice. Quantification of the percentage of connective tissue or fibrotic area (D) in WT and Arom^hum mice. 10 representative high-power fields were analyzed in each tissue. (E) Hydroxyproline content in LAMT of WT and Arom^hum mice treated with fulvestrant. One-way ANOVA with Tukey's multiple comparison test, ***p<0.001, ****p<0.0001. n=5 mice per group.
(§1) FIG. 19. Aromatase inhibitor letrozole reverses the large size of scrotal hernias in Arom^hum mice. Arom^hum mice with large size of hernias were treated with placebo or letrozole for 12 weeks. (A) Schematic diagram depicts the schedule of drug administration. (B) The area of scrotal hernia in Arom^hum mice.
as §1, with “20. E2/ER antagonist raloxifene” for “19. Aromatase inhibitor letrozole”, “raloxifene” for “letrozole”, “3” for “12”
We treated Arom^hum mice with letrozole for 12 weeks. […] Raloxifene is a selective estrogen receptor modulator (SERM) and is currently used to prevent and treat osteoporosis in postmenopausal women.
We treated Arom^hum mice with fulvestrant for 12 weeks when the hernia area was over 200 mm^2. Large hernias were completely disappeared after 3- to 4-week of fulvestrant administration. […] We measured the total amount of collagen (largely type I and III), a major component of ECM, through measuring the content of hydroxyproline(1).

C[C@]12CC[C@@H]3c4ccc(O)cc4C[C@@H](CCCCCCCCC[S+]([O-])CCCC(F)(F)C(F)(F)F)[C@H]3[C@@H]1CC[C@@H]2O (some centres unmarked) [fulvestrant]
myofiber atrophy / myofiber cross-section area (Arom^hum mice with large hernias, fulvestrant 12 weeks, FIG. 18C): completely reversed myofiber atrophy; also recorded: increase in myofiber cross-section area | total collagen content in LAMT (hydroxyproline assay) (Arom^hum mice with large hernias, fulvestrant 12 weeks, FIG. 18E): decreased to normal levels similar to WT mice | established fibrosis in the LAMT (Arom^hum mice with large hernias, fulvestrant 12 weeks, FIGS. 18C and D): completely reversed with fulvestrant treatment; also recorded: decrease in muscle fibrosis | reversal of large and severe hernias (>200 mm^2) (Arom^hum mice, fulvestrant alone for 12 weeks, started when hernia area was over 200 mm^2, FIG. 18): can reverse large and severe hernias | time of administration after which large hernias completely disappeared (Arom^hum mice, hernia area over 200 mm^2): 3- to 4 week
